Reference: patent publication US10464978B2, “Peptides and combination of peptides for use in immunotherapy against ovarian cancer and other cancers” (immatics biotechnologies GmbH, priority 2015, dated 2019)

These substances were tested on CD8+ T cells (assay: In vitro T-cell priming with aAPCs loaded with peptide/MHC and anti-CD28, pMHC multimer readout (in vitro immunogenicity)). Settings: HLA-A*02, healthy donors.
Assay type: cell-based, human
Procedure: In an aspect, the peptides are pre-screened for immunogenicity before being included in the warehouse. By way of example, and not limitation, the immunogenicity of the peptides included in the warehouse is determined by a method comprising in vitro T-cell priming through repeated stimulations of CD8+ T cells from healthy donors with artificial antigen presenting cells loaded with peptide/MHC complexes and anti-CD28 antibody.
In order to obtain information regarding the immunogenicity of the TUMAPs of the present invention, the inventors performed investigations using an in vitro T-cell priming assay based on repeated stimulations of CD8+ T cells with artificial antigen presenting cells (aAPCs) loaded with peptide/MHC complexes and anti-CD28 antibody.
In order to perform in vitro stimulations by artificial antigen presenting cells loaded with peptide-MHC complex (pMHC) and anti-CD28 antibody, the inventors first isolated CD8+ T cells from fresh HLA-A*02 leukapheresis products via positive selection using CD8 microbeads (Miltenyi Biotec, Bergisch-Gladbach, Germany) of healthy donors obtained from the University clinics Mannheim, Germany, after informed consent.
PBMCs and isolated CD8+ lymphocytes were incubated in T-cell medium (TCM) until use consisting of RPMI-Glutamax (Invitrogen, Karlsruhe, Germany) supplemented with 10% heat inactivated human AB serum (PAN-Biotech, Aidenbach, Germany), 100 U/ml Penicillin/100 μg/ml Streptomycin (Cambrex, Cologne, Germany), 1 mM sodium pyruvate (CC Pro, Oberdorla, Germany), 20 μg/ml Gentamycin (Cambrex). 2.5 ng/ml IL-7 (PromoCell, Heidelberg, Germany) and 10 U/ml IL-2 (Novartis Pharma, Nürnberg, Germany) were also added to the TCM at this step.
Generation of pMHC/anti-CD28 coated beads, T-cell stimulations and readout was performed in a highly defined in vitro system using four different pMHC molecules per stimulation condition and 8 different pMHC molecules per readout condition.
The purified co-stimulatory mouse IgG2a anti human CD28 Ab 9.3 (Jung et al., 1987) was chemically biotinylated using Sulfo-N-hydroxysuccinimidobiotin as recommended by the manufacturer (Perbio, Bonn, Germany). Beads used were 5.6 μm diameter streptavidin coated polystyrene particles (Bangs Laboratories, Illinois, USA).
pMHC used for positive and negative control stimulations were A*0201/MLA-001 (peptide […] (SEQ ID NO. 664) from modified Melan-A/MART-1) and A*0201/DDX5-001 ([…] from DDX5, SEQ ID NO. 665), respectively.
800.000 beads/200 μl were coated in 96-well plates in the presence of 4×12.5 ng different biotin-pMHC, washed and 600 ng biotin anti-CD28 were added subsequently in a volume of 200 μl. Stimulations were initiated in 96-well plates by co-incubating […] CD8+ T cells with 2×10^5 washed coated beads in 200 μl TCM supplemented with 5 ng/ml IL-12 (PromoCell) for 3 days at 37° C. Half of the medium was then exchanged by fresh TCM supplemented with 80 U/ml IL-2 and incubating was continued for 4 days at 37° C. This stimulation cycle was performed for a total of three times. For the pMHC multimer readout using 8 different pMHC molecules per condition, a two-dimensional combinatorial coding approach was used as previously described (Andersen et al., 2012) with minor modifications encompassing coupling to 5 different fluorochromes. Finally, multimeric analyses were performed by staining the cells with Live/dead near IR dye (Invitrogen, Karlsruhe, Germany), CD8-FITC antibody clone SK1 (BD, Heidelberg, Germany) and fluorescent pMHC multimers. For analysis, a BD LSRII SORP cytometer equipped with appropriate lasers and filters was used. Peptide specific cells were calculated as percentage of total CD8+ cells. Evaluation of multimeric analysis was done using the FlowJo software (Tree Star, Oregon, USA). In vitro priming of specific multimer+ CD8+ lymphocytes was detected by comparing to negative control stimulations. […]

Substance	donors (percentage of positive donors)	wells (percentage of positive wells)
283 (ALYIGDGYVIHLA; listed as Homo sapiens) [compound 283]	+++ (50%-69% = +++)	+ (<20% = +)
648 (LLWGNAIFL; listed as Homo sapiens) [compound 648]	+++ (50%-69% = +++)	++ (20%-49% = ++)
652 (TLWYRAPEV; listed as Homo sapiens) [compound 652]	++++ (> = 70% = ++++)	+++ (50%-69% = +++)
659 (ILFPDIIARA; listed as Homo sapiens) [compound 659]	+++ (50%-69% = +++)	+ (<20% = +)
662 (KIQEILTQV; listed as Homo sapiens) [compound 662]	+++ (50%-69% = +++)	+ (<20% = +)
663 (KIQEMQHFL; listed as Homo sapiens) [compound 663]	+++ (50%-69% = +++)	+ (<20% = +)

Each substance was assayed against HLA-A*02:01 (Homo sapiens, UniProt P04439, D140Y/D185E/D98H/E176V/E277Q/G131W/G231S/I119V/I121R/I166T/I218V/L300P/L318F/N151K/N90K/P208A/P217A/Q86G/Q94H/R138H/R169H/T345S) (assay: MHC binding assay: UV-ligand exchange with beta2m ELISA (peptide exchange yield)). Settings: binding to HLA-A*02:01.
Method in brief: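 Peptide-MHC complexes formed by UV-ligand exchange, a UV-cleavable peptide being replaced by the candidate peptide. Exchange products diluted 100-fold, captured on streptavidin-coated plates for 1h at 37° C, then detected with 2 ug/ml HRP anti-β2m (1h, 37° C) and TMB, absorbance 450 nm; value is exchange yield.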

Substance	Peptide exchange (MHC class I binding score, peptide exchange yield)
283 (ALYIGDGYVIHLA; listed as Homo sapiens) [compound 283]	“+++” (≥50 = +++)
